According to paper PMC6465301, “Enzyme-responsive progelator cyclic peptides for minimally invasive delivery to the heart post-myocardial infarction” (Nature Communications, 2019):
Bridge positions count the residues as written; N and C are the ends. Peptide text beside a SMILES is read from it.

Assays:
[1] = target: T1, thermolysin (Bacillus thermoproteolyticus, UniProt P00800); experiment: Time course rheology of thermolysin-induced bulk gelation and gel stability; assay type: in vitro ADME; settings: 10 mM in 1× DPBS pH 7.4, thermolysin 1:4500, 37 °C, continuous rheological measurement
T1 construct: purchased Promega V4001
T1 sequence (P00800 233-548): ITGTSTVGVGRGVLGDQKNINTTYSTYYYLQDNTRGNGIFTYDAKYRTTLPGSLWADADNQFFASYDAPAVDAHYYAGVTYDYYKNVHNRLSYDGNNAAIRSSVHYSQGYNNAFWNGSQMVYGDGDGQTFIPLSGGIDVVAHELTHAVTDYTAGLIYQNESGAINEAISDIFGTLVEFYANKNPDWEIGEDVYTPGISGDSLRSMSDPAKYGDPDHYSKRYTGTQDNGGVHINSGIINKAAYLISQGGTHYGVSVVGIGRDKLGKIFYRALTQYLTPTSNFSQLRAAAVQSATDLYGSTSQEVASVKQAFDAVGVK
Experimental: All peptide samples were prepared at 10 mM peptide, except for those used to assess the effect of SAP functionalization with respect to weight (15 mg mL^−1). Viscous and viscoelastic properties were assessed using a stress-controlled rheometer (TA Instruments AR-G2) equipped with a Peltier plate to control temperature and a 20 mm diameter parallel plate geometry. Unless otherwise stated all measurements were taken at an angular frequency of 2.5 rad s^−1, strain of 0.5%, and temperature of 37 °C. Measurements were performed with a gap height of 1000 µm and repeated three times (except for step-strain and time course measurements) to ensure reproducibility. To prevent water evaporation, mineral oil was wrapped around the edge of the geometry at the air–sample interface. For viscoelastic measurements the apparatus was used in oscillatory mode. […] The dynamic moduli of the hydrogels were measured as a function of frequency in the range 0.25–100 rad s^−1 at a strain of 0.5%. Continuous step-strain oscillations were used to monitor hydrogel healing through disruption (3 min, 100% strain) and recovery (15 min, 0.5% strain) cycles (n = 3). For viscosity measurements the apparatus was used in steady-state flow mode. The viscosity of the samples was measured as a function of shear rate in the range 0.1–10 s^−1 (5% tolerance). […]

[2] = test system: red blood cells (RBCs); experiment: Hemolysis assay of red blood cells; assay type: cell-based; settings: positive control at 1%, defines 100% hemolysis; human RBCs, 1 h, 37 °C; mean of n = 4
Experimental: RBCs were isolated by centrifugation of 40 mL citrated whole human blood at 500 × g for 5 min, followed by gentle washes with 150 mM NaCl (×1) and 1× DPBS (×3). Isolated RBCs were diluted 1:50 into 1× DPBS (pH 7.4) and lightly agitated to prevent settling. Briefly, 190 µL of dilute RBCs and 10 µL of peptide stock or additive (20× final concentration) were mixed and added to a 96-well plate (n = 4 repeats), covered, and incubated at 37 °C for 1 h. Plates were centrifuged at 500 × g to pellet intact RBCs using a centrifuge equipped with a microplate rotor. Supernatant (100 µL) was transferred to a new 96-well plate, taking care not to disturb the pellet. Absorbance of the supernatant was measured at 540 nm to detect released hemoglobin. To calculate % hemolysis, absorbances were corrected for background absorbance from untreated vehicle and then normalized to 1% Triton X-100-treated RBCs to represent 100% hemolysis. %Hemolysis was calculated according to the following equation:2 %Hemolysis=Absexperiemental-Absnegativecontrol/Abspositivecontrol-Absnegativecontrol×100, where Absexperiemental is the average well absorbance pertaining to RBCs pertaining to the additive sample being analyzed, Absnegative control is the average well absorbance for RBCs incubated with vehicle (1× DPBS), and Abspositive control is the average well absorbance for RBCs containing 1% Triton X-100. […]

[3] = test system: platelet-poor plasma (PPP)
Experimental: For all measurements, peptide stocks in 1× DPBS were prepared such that the final concentrations (v/v) in blood or plasma were 1:10, 1:100, 1:500,1:1000, 1:5000, 1:10,000, and 1:20,000 (peptide/fluid volume). Controls with collagen as a procoagulant initial platelet-adhesive surface (0.095 mg mL^−1 or 1:240 dilution) or with calcium chelated by sodium citrate utilized 1× DPBS as a vehicle to ensure consistent blood dilution in all experiments. Peptide stocks, whole human blood, isolated RBCs, and PPP were warmed to 37 °C immediately prior to use. Plate reader measurements were conducted on an EnSpire Multimode Plate Reader with 96-well tissue culture plates (TCP).
PPP was isolated from citrated whole human blood through two rounds of centrifugation at 2000 × g for 10 min and collection of the upper two-third layer. Briefly, 100 µL of PPP, 50 µL of peptide stock or additive (4× final concentration), and 50 µL of CaCl2 (50 mM) were mixed and added to a 96-well plate and incubated at 37 °C for kinetics measurements. For each sample, n = 6 repeats were conducted. Coagulation profiles were obtained by measuring well absorbance at 405 nm at 30 s intervals for 60 min. Onset to clotting was detected as a sharp increase in sample turbidity.

Molecule: CC(C)C[C@@H]1NC(=O)CNC(=O)[C@H](CC(C)C)NC(=O)[C@@H]2CCCN2C(=O)[C@H](CC(C)C)NC(=O)[C@H](CC(=O)O)NC(=O)[C@H](CC(C)C)NC(=O)[C@H](CCCCN)NC(=O)[C@H](CC(C)C)NC(=O)[C@H](CC(=O)O)NC(=O)[C@H](CC(C)C)NC(=O)[C@H](CCCCN)NC(=O)[C@H](CC(C)C)NC(=O)[C@H](CC(=O)O)NC(=O)[C@H](CC(C)C)NC(=O)[C@H](CCCCN)NC(=O)[C@@H](N)CSSC[C@@H](C(N)=O)NC(=O)CNC(=O)[C@H](C)NC1=O [KLDLCyclic] (H-CKLDLKLDLKLDLPLGLAGC-NH2; disulfide 1-20)
- Stability of viscoelastic properties of resulting gel in the presence of thermolysin [1]: no change for up to 3 days

Molecule: Triton X-100
- %Hemolysis [2]: 100.00%

Molecule: collagen
- Pro-thrombotic profile in PPP [3]: lack of change in pro-thrombotic profiles
